Test results: doi:10.1101/2021.11.20.466133v3 (biorxiv, 2022)

How the values were obtained:
[1] = biological target: T1, MsDisA (Mycolicibacterium smegmatis, UniProt A0R564); conditions: substrate inhibition by ATP; pH 7.5; 37 °C; 5 mM MgCl2
[2] = biological target: T1, MsDisA; assay: biochemical
[3] = biological target: MsPDE (Mycolicibacterium smegmatis, UniProt A0QVM9); assay: HPLC AMP formation, substrate inhibition model; type: biochemical; conditions: substrate inhibition by c-di-AMP; pH 7.5; 5 mM MgCl2
Chain of MsPDE (A0QVM9 1-340): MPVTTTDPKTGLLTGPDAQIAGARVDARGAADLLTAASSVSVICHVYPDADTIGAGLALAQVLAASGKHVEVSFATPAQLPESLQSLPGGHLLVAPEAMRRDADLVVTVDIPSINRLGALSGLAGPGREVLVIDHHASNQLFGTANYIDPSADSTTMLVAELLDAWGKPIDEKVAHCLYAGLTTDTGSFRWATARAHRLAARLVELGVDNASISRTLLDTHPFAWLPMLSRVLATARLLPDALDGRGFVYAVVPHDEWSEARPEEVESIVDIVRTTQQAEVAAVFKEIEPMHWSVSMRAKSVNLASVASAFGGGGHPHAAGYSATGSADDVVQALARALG

T1 sequence (A0R564 whole entry): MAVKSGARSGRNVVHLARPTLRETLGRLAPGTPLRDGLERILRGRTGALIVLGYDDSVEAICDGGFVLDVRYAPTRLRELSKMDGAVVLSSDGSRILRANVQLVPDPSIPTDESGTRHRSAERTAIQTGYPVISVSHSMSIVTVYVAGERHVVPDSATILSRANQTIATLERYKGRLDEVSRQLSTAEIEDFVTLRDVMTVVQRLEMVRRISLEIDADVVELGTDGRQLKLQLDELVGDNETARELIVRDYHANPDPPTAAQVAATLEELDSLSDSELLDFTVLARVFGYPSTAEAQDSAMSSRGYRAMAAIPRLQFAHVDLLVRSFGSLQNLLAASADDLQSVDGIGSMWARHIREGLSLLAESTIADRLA

Row | SMILES | Ki [1] | Kd [2] | Ki [3]
1 | Nc1ncnc2c1ncn2[C@@H]1O[C@H](COP(=O)(O)OP(=O)(O)OP(=O)(O)O)[C@@H](O)[C@H]1O [ATP] | 1430 µM | 2.4 µM | 
2 | Nc1ncnc2c1ncn2[C@@H]1O[C@@H]2COP(=O)(O)O[C@H]3[C@@H](O)[C@H](n4cnc5c(N)ncnc54)O[C@@H]3COP(=O)(O)O[C@H]2[C@H]1O [c-di-AMP] |  |  | 1120 µM
